Measurements published in US7592344B2, “NK1 and NK2-antagonists and compositions and methods of using the same” (Solvay Pharmaceuticals GmbH, priority 2005, dated 2009).

Key:
human NK1 receptor [1] = target: T1, human NK1 receptor (Homo sapiens, UniProt P25103); assay: Binding power to NK1 receptors in vitro ([3H]-Substance P displacement, CHO cell membranes); design: expressed in transfected cells; host or cells: CHO cells (membrane preparation); settings: human NK1 receptor in CHO membranes, ligand [3H]-Substance P; for Ki: read-out: pKi (NK1) (converted)
Procedure: 1. Determination of the Binding Power of the Test Substances to NK1 Receptors In Vitro.
Affinity of the test substances to human NK1 receptors was measured in vitro.
The receptor binding studies were performed with [^3H]-Substance P as ligand. For the binding test, different samples of a membrane preparation of CHO cells (=egg cells of the Chinese hamster, […]), which express the human NK1 receptor (“Accession Number” of the associated nucleic acid sequence=M74290; “Accession Number” of the associated protein sequence=P25103; cf. Takeda, Y.; Chou, K. B., Takeda, J.; Sachais, B. S. and Krause, J. E; Biochemical and Biophysical Research Communications, 179(3) (1991) 1232-1240), were incubated with a solution of the marked ligand, with the incubation mixtures containing no test substance or additions of different concentration of test substance. Then, separation of bound and free ligands was performed in each of the samples with the aid of glass-fiber filtration. The fraction remaining in the filter was washed several times with buffer solution and then the radioactivity of the fraction remaining in the filter was measured using a beta scintillation counter.
For the compounds of Examples 1 to 14, that concentration which effects half maximum displacement of the bound ligand was determined as IC50 of the respective test substance. From this, the corresponding inhibition constant (Ki value) of the test substance was calculated, and was stated as the negative common logarithm of the Ki value (=pKi value) The pKi value is a measurement of the affinity of the test substances to human NK1 receptors.

human NK2 receptor [2] = target: T2, human NK2 receptor (Homo sapiens, UniProt P21452); assay: Binding power to NK2 receptors in vitro ([3H]-SR 48968 displacement, CHO cell membranes); design: expressed in transfected cells; host or cells: CHO cells (membrane preparation); settings: human NK2 receptor in CHO membranes, ligand [3H]-SR 48968, 90 min incubation; for Ki: read-out: pKi (NK2) (converted)
T2 sequence (P21452 1-398): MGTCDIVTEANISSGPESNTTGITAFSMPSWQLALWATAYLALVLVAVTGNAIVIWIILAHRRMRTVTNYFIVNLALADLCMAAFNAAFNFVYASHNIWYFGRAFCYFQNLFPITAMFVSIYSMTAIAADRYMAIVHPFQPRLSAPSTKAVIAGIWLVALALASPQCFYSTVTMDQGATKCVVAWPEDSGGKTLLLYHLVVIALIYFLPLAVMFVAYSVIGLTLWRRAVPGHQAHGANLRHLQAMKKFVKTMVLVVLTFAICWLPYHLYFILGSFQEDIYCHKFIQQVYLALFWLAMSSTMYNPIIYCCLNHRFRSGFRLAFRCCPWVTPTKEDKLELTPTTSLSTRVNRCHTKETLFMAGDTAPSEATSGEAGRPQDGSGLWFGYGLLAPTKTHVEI
Procedure: The affinity of the test substances to human NK2 receptors was measured in vitro. The ability of the test substances to displace the selective NK2 receptor antagonist SR 48968 (=saredutant) used as reference ligand from its corresponding bond was determined.
The receptor binding studies were carried out with radioactively marked [^3H]-SR 48968 (from Amersham) as ligand. For the binding test, different samples of a membrane preparation of CHO cells (=egg cells of the Chinese hamster, […]), which express the human NK2 receptor (for preparation, see N. P. Gerard et al., Journal of Biological Chemistry 265/33 (1990) 20455-20462), were incubated for 90 minutes (=min.) with a solution of the marked ligand, with the incubation mixtures containing no test substance or additions of different concentrations of test substance. Then in each case the membrane-bound ligands in the samples were separated from free ligands by filtration. The fraction remaining in the filter was washed several times with buffer solution, before its radioactivity was measured using a liquid scintillation counter. That concentration which effects half-maximum displacement of the bound reference ligand was determined as IC50 of the respective test substance. The inhibition constant (Ki value) of the test substance was calculated from the respective IC50 value, and was stated as the negative logarithmized value thereof (pKi).
If several measurements were performed, the average thereof was listed each time. The pKi value is a measurement of the affinity of the test substances to human NK2 receptors.

NK1 receptors [3] = target: T3, NK1 receptors (Cavia porcellus, UniProt P30547); assay: Functional NK1 antagonism on isolated guinea pig aorta rings (inhibition of Substance P-induced relaxation); settings: phenylephrine tone, 0.01 μmol Substance P
T3 construct: from tissue; host or cells: whole animal: anesthetized Pirbright-White guinea pigs
Procedure: 3. Determining of the Functional NK1 Antagonism of the Test Substances on Isolated Guinea Pig Tissue In Vitro
The action antagonistic to NK1 receptors of the test substances was measured in vitro on isolated ring preparations, kept in an oxygenated nutrient solution, of the aortas of Pirbright-White guinea pigs.
In order to measure the contraction of the vessel muscles, the preparations were fixed to a hook, joined by a thread to a force measuring apparatus and the contractions were recorded in each case on a plotter. The aorta preparations were tonicized with phenylephrine. […] The relaxations before and after the administration of the test substance were qualified in percent. The effective concentration of the half maximum inhibition of the relaxation of the tone (=EC50) was calculated. The negative common logarithm of the EC50 value (=pEC50) was given as characteristic variable. The pEC50 value is a measurement of the functional effectiveness of the test substances on NK1 receptors.

NK2 receptors [4] = target: T4, NK2 receptors (Cavia porcellus, UniProt Q64077); assay: Functional NK2 antagonism on isolated guinea pig gall-bladder (inhibition of NKA-induced contraction); settings: NKA 0.1 μmol/l, two hours' incubation, IC50 in mol/l
T4 construct: from tissue; host or cells: whole animal: anesthetized Pirbright-White guinea pigs
T4 sequence (Q64077 1-402): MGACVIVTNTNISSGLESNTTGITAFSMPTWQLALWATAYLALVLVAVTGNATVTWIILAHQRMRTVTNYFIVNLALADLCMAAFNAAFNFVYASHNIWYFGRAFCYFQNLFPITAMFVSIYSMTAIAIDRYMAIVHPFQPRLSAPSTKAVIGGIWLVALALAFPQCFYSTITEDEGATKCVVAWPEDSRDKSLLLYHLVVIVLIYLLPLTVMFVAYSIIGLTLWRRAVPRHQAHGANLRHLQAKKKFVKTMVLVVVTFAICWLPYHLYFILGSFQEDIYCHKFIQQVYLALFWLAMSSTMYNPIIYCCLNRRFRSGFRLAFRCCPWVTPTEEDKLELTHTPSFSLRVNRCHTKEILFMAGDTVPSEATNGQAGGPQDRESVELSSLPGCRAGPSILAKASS
Procedure: 4. Determination of the Functional […] of the Test Substances on Isolated Guinea Pig Tissue In Vitro.
The NK2 receptor-antagonizing action of the test substances was determined on isolated gall-bladder preparations from Pirbright-White guinea pigs, held in an oxygen-saturated nutrient solution. To this end, the preparations were fastened on one hand in the nutrient solution to organ holders and on the other hand on a force meter by a thread.
The concentration of the test substances was increased iteratively in the subsequent experiments as a function of the result in logarithmic whole or half steps, until at least one concentration above or below 50% inhibition of contraction was determined (up to at most 10^−5 mol/l). For each concentration, the average value of inhibition of contraction was calculated from 2 to 4 preparations. In each case, the concentration of half-maximum inhibition (IC50) per test substance was calculated as characteristic variable. In each case the logarithmized value of the IC50 per test substance is given as plC50 in [mol/l].

human NK2 receptor [5] = target: T2, human NK2 receptor; assay: Functional cellular test, Ca2+ measurement using FLIPR, NK2 (NKA stimulated CHO cells)
Procedure: (§4) Functional Cellular Tests of the NK1- and NK2-antagonistic Effects
(§5) Functional cellular tests of the antagonistic effect of the compounds of the present invention on the human tachykinin receptors were performed in CHO cells expressing the recombinant human NK1 or NK2 receptor. In these tests the inhibition of ligand induced increase in mobilization of intracellular calcium and the inhibition of ligand induced phosphorylation of MAPK were determined, which can be used as a measure of functional activity of tachykinin-antagonists. Additionally, the antagonistic properties of reference compounds on the different tachykinin receptors were characterized for comparison.
(§6) The effects of test compounds were assessed using Chinese hamster ovary (CHO) fibroblast cells, stably expressing cloned human NK1 or NK2 receptors. The NK receptor in coupled to Gq. The activation of the Gq protein by ligand binding to the receptor leads to a mobilization of intracellular calcium and phosphorylation of MAPK. Both systems were used to determine functional effects of the test compounds.
(§7) Ca^2+Measurements Using FLIPR for NK1 and NK2 Activity
(§8) For tests, cell were seeded 24 hours prior to the experiment into black 96-well microplates. The cell density was 2.2×10^4 cells/well. All steps were done under sterile conditions. In order to observe changes in intracellular calcium levels, cells were loaded with a calcium-sensitive dye. This dye (FLUO-4, from Molecular Probes) excites at 488 nm, and emits in the 560 nm range, only if a complex with calcium is formed. For the dye loading the growth-medium was aspirated out of the well without disturbing the confluent cell layer and 100 μl loading medium (HBSS, 4 μM FLUO-4, 0.005% (w/v) pluronic acid, 2.5 mM probenecid, 20 mM HEPES, pH 7.4) was dispensed into each well using an automatic pipettor system (Multidrop, Labsystems). Pluronic acid was added to increase dye solubility and dye uptake into the cells, whereas probenecid, an anion exchange inhibitor, was added to the loading medium to increase dye retention in the cells. The cells were incubated in a 5% CO2 incubator at 37° C. for 40 minutes. After dye loading, the cells were washed three times with wash-buffer (HBSS, 2.5 mM probenecid, 20 mM HEPES, pH 7.4) to reduce basal fluorescence. In the last washing step the buffer was aspirated and replaced with 100 μl washing buffer. […] The FLIPR setup parameters were set to 0.4 sec exposure length, filter 1, 50 μl fluid addition, pipettor height at 125 μl, dispense speed 40 μl/sec without mixing. Maximal fluorescence changes were obtained using the statistic function of the FLIPR software, and data plotted using GraphPad Prism 4. All points were expressed as a percentage inhibition of the control agonist. IC50 values were determined using sigmoidal dose-response curve fitting.

human NK1 receptor [6] = target: T1, human NK1 receptor; assay: Functional cellular test, Ca2+ measurement using FLIPR, NK1 (substance P stimulated CHO cells)
Procedure: as §4, §5, §6, §7, §8

NK1 receptors [7] = target: T3, NK1 receptors; assay: NK1-receptor-antagonistic effectiveness in vivo in anesthetized guinea pigs (NKA-induced early hypotension); settings: guinea pig
Description: (§1) 6. Determination of the NK1- and NK2-receptor-antagonistic Effectiveness of the Test Substances In Vivo
(§2) The NK1- and NK2-antagonistic activities of the test substances were investigated in anesthetized guinea pigs in each case after intravenous (=i.v.) and oral (=p.o.) administration in vivo. With the present test model it is possible to detect both NK2-antagonistic effects in three different organ systems (respiratory tracts, colon and circulation) and NK1-antagonistic effects (rapid drop in blood pressure) in an animal simultaneously.
Pirbright-White guinea pigs having a body weight of 500-700 g were anesthetized with ketamine/xylazine (67/13 mg/kg subcutaneously, initial dose, further doses administered as required). […] The animals were artificially ventilated via a tracheal cannula and the respiratory pressure was recorded by a pressure transducer. […] Blood pressure, heart rate, respiratory pressure and colonic pressure were measured continuously for each animal and plotted on a recorder and by a digital data-processing system. […]
(§3) The antagonistic effects of the test substances were then determined as “area under the curve” (“AUC”) over the investigation period after administration of the test substances (1-180 min after administration) and the ED50 values after oral administration obtained therefrom were plotted in Table 7.

NK2 receptors [8] = target: T4, NK2 receptors; assay: NK2-receptor-antagonistic effectiveness in vivo in anesthetized guinea pigs (NKA-induced late hypotension, bronchoconstriction, colonic motility); settings: guinea pig
Description: as §1, §2
Pirbright-White guinea pigs having a body weight of 500-700 g were anesthetized with ketamine/xylazine (67/13 mg/kg subcutaneously, initial dose, further doses administered as required). The animals were provided with an intravenous catheter in order to administer the substance and an intra-arterial catheter to measure the blood pressure. The animals were artificially ventilated via a tracheal cannula and the respiratory pressure was recorded by a pressure transducer. A balloon was introduced into the distal colon of the animals for manometric recording of colon motility by a pressure transducer. Blood pressure, heart rate, respiratory pressure and colonic pressure were measured continuously for each animal and plotted on a recorder and by a digital data-processing system. […] The second phase of delayed hypotension (=phase of maximum hypotension after 2-5 min.) on the other hand is mediated via NK2 receptors, since they can be blocked by specific NK2 receptor antagonists.
These ED50 values obtained from cumulative dose effect curves are plotted in Table 6.
as §3

[9] = i.v., NKA stimulus 1 min after dosing

T3 sequence (P30547 whole entry): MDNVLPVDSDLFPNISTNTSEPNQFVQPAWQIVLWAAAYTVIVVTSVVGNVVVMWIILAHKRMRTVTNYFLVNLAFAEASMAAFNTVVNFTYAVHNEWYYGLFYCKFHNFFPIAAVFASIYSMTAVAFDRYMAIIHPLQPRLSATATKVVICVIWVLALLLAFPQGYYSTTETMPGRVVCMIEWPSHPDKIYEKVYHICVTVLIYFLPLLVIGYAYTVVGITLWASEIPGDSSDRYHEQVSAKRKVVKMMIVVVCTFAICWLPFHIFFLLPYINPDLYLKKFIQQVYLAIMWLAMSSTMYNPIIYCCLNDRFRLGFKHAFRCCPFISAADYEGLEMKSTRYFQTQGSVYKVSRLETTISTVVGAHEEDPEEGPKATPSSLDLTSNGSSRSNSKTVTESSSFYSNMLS
T1 sequence (P25103 whole entry): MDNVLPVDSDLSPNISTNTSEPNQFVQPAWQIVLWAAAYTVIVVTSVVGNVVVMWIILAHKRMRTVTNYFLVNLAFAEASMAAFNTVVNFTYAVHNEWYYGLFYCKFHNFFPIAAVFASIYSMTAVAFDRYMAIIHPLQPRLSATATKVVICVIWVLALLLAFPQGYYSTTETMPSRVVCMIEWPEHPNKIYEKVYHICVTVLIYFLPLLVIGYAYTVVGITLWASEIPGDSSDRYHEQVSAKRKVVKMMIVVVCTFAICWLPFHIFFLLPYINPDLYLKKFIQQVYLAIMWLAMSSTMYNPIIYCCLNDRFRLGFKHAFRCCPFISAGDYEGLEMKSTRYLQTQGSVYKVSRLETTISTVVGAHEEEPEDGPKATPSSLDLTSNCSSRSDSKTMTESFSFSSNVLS

Ki (human NK1 receptor [1]) [µM] | Ki (human NK2 receptor [2]) [µM] | Kb (human NK2 receptor [5]) [µM] | Kb (human NK1 receptor [6]) [µM] | Structure (SMILES) | further results
 |  |  |  | CN(CC(CCN1CCN(C(c2ccsc2)C(O)C(O)C(O)CO)CC1)c1ccc(Cl)c(Cl)c1)C(=O)c1cc(C#N)cc2ccccc12 (centres unmarked) [Compound 5] | pKi (NK1) (human NK1 receptor [1]): 8.9; pKi (NK2) (human NK2 receptor [2]): 7.3; pEC50 (NK1 receptors [3]): 10.0; pIC50 (NK2 receptors [4]): 7.5
0.001 | 0.794 | 0.000794 | 0.000501 | COc1ccc([C@@H]([C@H](O)CO)N2CCN(CC[C@H](CN(C)C(=O)c3cc(C#N)cc4ccccc34)c3ccc(Cl)c(Cl)c3)CC2)cc1 [Compound 16, 3-cyano-N-[(2)-2-(3,4-dichlorophenyl)-4-{4-[(1S,2S)-2,3-dihydroxy-1-(4-methoxyphenyl)propyl]piperazin-1-yl}butyl]-N-methyl-1-naphthamide] | 
 |  | 0.01 |  | CN(C[C@@H](CCN1CCN([C@@H](c2cccs2)[C@H](O)CO)CC1)c1ccc(Cl)c(Cl)c1)C(=O)c1cc(C#N)cc2ccccc12 [Compound 9, 3-cyano-N-[(2S)-2-(3,4-dichlorophenyl)-4-{4-[(1R,2S)-2,3-dihydroxy-1-(2-thienyl)propyl]piperazin-1-yl}butyl]-N-methyl-1-naphthamide] | 
0.01 | 0.0316 | 0.0158 | 0.00794 | CN(CC(CCN1CCN(C(Cc2ccccc2)C(O)CO)CC1)c1ccc(Cl)c(Cl)c1)C(=O)c1cc(C#N)cc2ccccc12 (centres unmarked) [Compound 24] | 
0.00794 | 0.1 | 0.0398 | 0.01 | CC(=O)OCC(O)C(Cc1ccccc1)N1CCN(CCC(CN(C)C(=O)c2cc(C#N)cc3ccccc23)c2ccc(Cl)c(Cl)c2)CC1 (centres unmarked) [Compound 26] | 
 |  |  |  | CN(CC(CCN1CCN(C(c2ccco2)C(O)C(O)CO)CC1)c1ccc(Cl)c(Cl)c1)C(=O)c1cc(C#N)cc2ccccc12 (centres unmarked) [Compound 7] | pKi (NK1) (human NK1 receptor [1]): 8.3; pKi (NK2) (human NK2 receptor [2]): 7.4; pA2 (NK2) (human NK2 receptor [5]; CHO cells with human NK2 receptor, FLIPR Ca2+, NKA 10^-7 M): 8.1; ED50 iv after 1 min (cumulative), NK1 (early hypotension) (NK1 receptors [7]; [9]): 0.052 µmol/kg; ED50 iv after 1 min (cumulative), NK2 (bronchoconstriction) (NK2 receptors [8]; [9]): 0.207 µmol/kg; ED50 iv after 1 min (cumulative), NK2 (colonic motility) (NK2 receptors [8]; [9]): 0.309 µmol/kg; ED50 iv after 1 min (cumulative), NK2 (late hypotension) (NK2 receptors [8]; [9]): 0.338 µmol/kg; pA2 (NK1) (human NK1 receptor [6]; CHO cells with human NK1 receptor, FLIPR Ca2+, substance P 10^-8 M): 8.8
0.00631 | 0.0251 | 0.00794 | 0.000631 | CC(=O)OC[C@@H](OC(C)=O)[C@H](c1ccco1)N1CCN(CC[C@H](CN(C)C(=O)c2cc(C#N)cc3ccccc23)c2ccc(Cl)c(Cl)c2)CC1 [Compound 27, (2S,3R)-2-(acetyloxy)-3-{4-[(3S)-4-[3-cyano-1-naphthoyl)(methyl)amino]-3-(3,4-dichlorophenyl)butyl]piperazin-1-yl}-3-(2-furyl)propyl acetate] | 
 |  |  |  | CN(C[C@@H](CCN1CCN([C@@H](c2ccco2)[C@H](O)CO)CC1)c1ccc(Cl)c(Cl)c1)C(=O)c1cc(C#N)cc2ccccc12 [Compound 1, 3-cyano-N-[(2S)-2-(3,4-dichlorophenyl)-4-{4-[(1R,2S)-1-(2-furyl)-2,3-dihydroxy-propyl]-piperazin-1-yl}butyl]-N-methyl-1-naphthamide] | oral activity as NK1 receptor antagonist (in words) (NK1 receptors [7]; oral): active orally; oral activity as NK2 receptor antagonist (in words) (NK2 receptors [8]; oral): active orally; melting point: 140 to 142 °C
